What all share (type): biochemical
Experiment [1] concerns the target T1, recombinant human MAO-A (monoamine oxidase-A) (Homo sapiens, UniProt P21397).
T1 construct: purchased Sigma-Aldrich
T1 sequence (P21397 1-527): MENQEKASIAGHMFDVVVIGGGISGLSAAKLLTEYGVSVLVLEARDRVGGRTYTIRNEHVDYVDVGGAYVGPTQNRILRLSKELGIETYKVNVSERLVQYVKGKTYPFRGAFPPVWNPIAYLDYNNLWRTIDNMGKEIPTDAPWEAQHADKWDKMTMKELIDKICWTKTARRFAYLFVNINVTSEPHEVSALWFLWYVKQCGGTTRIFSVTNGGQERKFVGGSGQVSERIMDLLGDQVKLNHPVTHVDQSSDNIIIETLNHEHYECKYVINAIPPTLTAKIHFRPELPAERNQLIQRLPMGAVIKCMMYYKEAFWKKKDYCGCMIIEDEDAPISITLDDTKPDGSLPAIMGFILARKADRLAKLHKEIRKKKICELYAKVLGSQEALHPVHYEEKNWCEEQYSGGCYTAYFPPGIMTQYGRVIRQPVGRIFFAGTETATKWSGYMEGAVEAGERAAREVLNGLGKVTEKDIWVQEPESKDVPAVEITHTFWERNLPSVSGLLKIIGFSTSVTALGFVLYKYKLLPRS
Put plainly: Activity evaluation on recombinant human MAO-A (Amplex Red/HRP-coupled assay, 0.5 mM tyramine substrate). The settings on record: read-out: Inhibitory Activity (IC50, nM) MAO-A. Put shortly: (§1)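 Using an HRP-coupled Amplex Red readout (544/590 nm, kinetic over 1–2 h), IC50 values were fitted by 4-parameter logistic model to percent decrease in signal rate against DMSO control. Compounds (1:3 dilutions, 8 points, <1% DMSO) sat 30 min at 37 °C with enzyme in pH 7.4 phosphate buffer before substrate, 200 uM Amplex Red and HRP were added.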

Experiment [2] addresses T2, recombinant human DAO (diamine oxidase) (Homo sapiens, UniProt P19801).
T2 construct: purchased R&D systems
T2 sequence (P19801 20-751): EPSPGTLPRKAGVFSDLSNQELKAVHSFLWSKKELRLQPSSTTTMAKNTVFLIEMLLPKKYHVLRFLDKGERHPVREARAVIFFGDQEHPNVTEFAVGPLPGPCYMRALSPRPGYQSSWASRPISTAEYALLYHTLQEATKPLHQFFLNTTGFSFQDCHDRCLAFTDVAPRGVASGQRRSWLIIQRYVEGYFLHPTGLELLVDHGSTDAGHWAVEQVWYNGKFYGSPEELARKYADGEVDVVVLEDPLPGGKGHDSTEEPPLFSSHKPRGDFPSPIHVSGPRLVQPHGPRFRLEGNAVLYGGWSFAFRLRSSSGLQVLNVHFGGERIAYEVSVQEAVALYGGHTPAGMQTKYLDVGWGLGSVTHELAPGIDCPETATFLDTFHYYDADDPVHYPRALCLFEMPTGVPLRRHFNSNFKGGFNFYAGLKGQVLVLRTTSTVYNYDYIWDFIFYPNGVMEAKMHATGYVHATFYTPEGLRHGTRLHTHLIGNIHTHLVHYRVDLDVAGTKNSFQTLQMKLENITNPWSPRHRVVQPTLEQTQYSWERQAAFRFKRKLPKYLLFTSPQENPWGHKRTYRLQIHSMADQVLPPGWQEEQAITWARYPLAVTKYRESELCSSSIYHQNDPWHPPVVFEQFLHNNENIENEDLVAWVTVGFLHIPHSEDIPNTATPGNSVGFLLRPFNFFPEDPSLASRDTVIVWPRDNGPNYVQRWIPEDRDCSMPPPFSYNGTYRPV
Put plainly: Activity evaluation on recombinant human DAO (Amplex Red/HRP-coupled assay, 1 mM putrescine substrate). The settings on record: read-out: Inhibitory Activity (IC50, nM) DAO. Put shortly: as §1

The target in experiment [3] is T3, recombinant human MAO-B (monoamine oxidase-B) (Homo sapiens, UniProt P27338).
T3 construct: purchased Sigma-Aldrich
T3 sequence (P27338 1-520): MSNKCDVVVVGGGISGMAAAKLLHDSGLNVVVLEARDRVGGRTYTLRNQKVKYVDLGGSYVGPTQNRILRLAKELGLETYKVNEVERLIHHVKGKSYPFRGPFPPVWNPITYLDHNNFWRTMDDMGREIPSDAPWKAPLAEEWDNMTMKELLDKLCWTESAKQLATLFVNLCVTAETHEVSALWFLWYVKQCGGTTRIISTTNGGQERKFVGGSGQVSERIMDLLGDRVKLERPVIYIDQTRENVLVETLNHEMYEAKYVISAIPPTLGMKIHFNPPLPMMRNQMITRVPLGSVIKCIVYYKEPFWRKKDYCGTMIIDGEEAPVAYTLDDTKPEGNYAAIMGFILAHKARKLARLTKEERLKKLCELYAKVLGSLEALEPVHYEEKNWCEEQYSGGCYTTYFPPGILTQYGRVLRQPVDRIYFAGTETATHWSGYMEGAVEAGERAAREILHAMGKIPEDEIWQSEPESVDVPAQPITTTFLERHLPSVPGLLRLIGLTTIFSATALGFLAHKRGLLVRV
Put plainly: Activity evaluation on recombinant human MAO-B (Amplex Red/HRP-coupled assay, 1 mM benzylamine substrate). As to conditions: read-out: Inhibitory Activity (IC50, nM) MAO-B. Put shortly: as §1

The target of another experiment is T4, recombinant human VAP-1 (Homo sapiens, UniProt Q16853).
T4 construct: purchased R&D systems
T4 sequence (Q16853 1-763): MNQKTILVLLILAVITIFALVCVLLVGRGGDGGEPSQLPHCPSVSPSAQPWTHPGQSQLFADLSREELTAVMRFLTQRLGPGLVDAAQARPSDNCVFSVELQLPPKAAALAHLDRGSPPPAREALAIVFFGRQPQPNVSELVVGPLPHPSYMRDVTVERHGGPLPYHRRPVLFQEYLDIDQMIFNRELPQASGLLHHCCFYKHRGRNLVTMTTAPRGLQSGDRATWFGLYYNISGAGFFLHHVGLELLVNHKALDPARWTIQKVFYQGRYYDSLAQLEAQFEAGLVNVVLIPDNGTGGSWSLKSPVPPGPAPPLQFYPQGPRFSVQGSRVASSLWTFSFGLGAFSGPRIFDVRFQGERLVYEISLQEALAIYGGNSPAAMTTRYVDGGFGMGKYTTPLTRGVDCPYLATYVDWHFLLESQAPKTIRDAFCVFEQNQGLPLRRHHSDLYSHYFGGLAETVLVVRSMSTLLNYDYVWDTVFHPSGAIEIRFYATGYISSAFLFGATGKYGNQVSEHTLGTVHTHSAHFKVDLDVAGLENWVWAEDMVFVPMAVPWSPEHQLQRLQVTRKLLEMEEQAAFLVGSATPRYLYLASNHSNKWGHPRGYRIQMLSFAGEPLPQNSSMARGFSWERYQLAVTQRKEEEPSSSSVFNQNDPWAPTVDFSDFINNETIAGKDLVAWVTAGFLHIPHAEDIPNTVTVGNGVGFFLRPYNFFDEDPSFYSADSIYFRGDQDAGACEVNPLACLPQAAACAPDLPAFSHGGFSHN
Put plainly: Activity evaluation on recombinant human VAP-1 (Amplex Red/HRP-coupled hydrogen peroxide assay, benzylamine substrate). The settings on record: read-out: Inhibitory Activity (IC50, nM) human VAP-1. Put shortly: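 Hydrogen peroxide from benzylamine (1 mM) oxidation by human recombinant VAP-1 detected via HRP-coupled Amplex Red (200 uM) fluorescence, kinetic over 1–2 h. Enzyme and compound preincubated 30 min at 37 °C, pH 7.4 phosphate; 8-point dose response, signal-rate decrease versus DMSO control fitted to four-parameter logistic for IC50.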

The mark [4] stands for this setting: recombinant human VAP-1, benzylamine substrate.
Where [5] appears, read: recombinant human VAP-1, 30 min preincubation at 37° C., 1 mM benzylamine.

Each structure is given as a SMILES string. Counter-ions that a name gives are not always drawn. Like-named read-outs stand apart in the source and are kept apart here.

`CCn1cc(-c2cc(F)c(Cn3cnn(CC(CN)=C(F)F)c3=O)s2)cn1` [Example 302, 2-[2-(aminomethyl)-3,3-difluoro-allyl]-4-[[5-(1-ethylpyrazol-4-yl)-3-fluoro-2-thienyl]methyl]-1,2,4-triazol-3-one Trifluoroacetate]: the IC50 – broadly, the concentration that gives 50% inhibition – in experiment [1] (0.5 mM tyramine substrate) is > 100000 nM; in experiment [2] (1 mM putrescine substrate) it was 19500 nM; in experiment [3] (1 mM benzylamine substrate), > 100000 nM; at recombinant human VAP-1 (setting [4]) it was 1.1 nM.
As for `CS(=O)(=O)n1cc(-c2ccc(Cn3cnn(CC(CN)=C(F)F)c3=O)s2)cn1` [Example 293, 2-[2-(aminomethyl)-3,3-difluoro-allyl]-4-[[5-(1-methylsulfonylpyrazol-4-yl)-2-thienyl]methyl]-1,2,4-triazol-3-one Trifluoroacetate], the IC50 in experiment [1] (0.5 mM tyramine substrate) was > 100000 nM; in experiment [2] (1 mM putrescine substrate), 25300 nM; in experiment [3] (1 mM benzylamine substrate), > 100000 nM; at recombinant human VAP-1 (setting [4]), 2.4 nM.
For `CN1CCOc2cc(-c3ccc(Cn4cnn(CC(CN)=C(F)F)c4=O)s3)ccc21` [Example 140, 2-[2-(aminomethyl)-3,3-difluoro-allyl]-4-[[5-(4-methyl-2,3-dihydro-1,4-benzoxazin-7-yl)-2-thienyl]methyl]-1,2,4-triazol-3-one Trifluoroacetate], the half-inhibitory concentration (IC50) in experiment [1] (0.5 mM tyramine) worked out at 6600 nM; in experiment [2] (1 mM putrescine) it was 6800 nM; in experiment [3] (1 mM benzylamine), 8000 nM; at recombinant human VAP-1 (setting [5]), 0.8 nM.
Turning to `Cc1c(-c2ccc3c(c2)CCC(=O)N3C)cccc1-n1cnn(CC(CN)=C(F)F)c1=O` [Example 259, 6-[3-[1-[2-(aminomethyl)-3,3-difluoro-allyl]-5-oxo-1,2,4-triazol-4-yl]-2-methyl-phenyl]-1-methyl-3,4-dihydroquinolin-2-one Trifluoroacetate], the concentration for half-maximal inhibition (IC50) in experiment [1] (0.5 mM tyramine substrate) is > 100000 nM; in experiment [2] (1 mM putrescine substrate), > 100000 nM; in experiment [3] (1 mM benzylamine substrate), > 100000 nM; at recombinant human VAP-1 (setting [4]), 1.3 nM.
On to `NCC(Cn1ncn(-c2ccc(Br)cc2F)c1=O)=C(F)F` [Example 5, 2-[2-(aminomethyl)-3,3-difluoro-allyl]-4-(4-bromo-2-fluoro-phenyl)-1,2,4-triazol-3-one Trifluoroacetate], for which the IC50 was > 100000 nM in experiment [1] (0.5 mM tyramine), 67000 nM in experiment [2] (1 mM putrescine), 4900 nM in experiment [3] (1 mM benzylamine) and 2.5 nM at recombinant human VAP-1 (setting [5]).
The matching figures for `Cc1cc(-c2ccc(-n3cnn(CC(CN)=C(F)F)c3=O)cc2F)cc2c1NC(=O)CC2` [Example 29, 6-[4-[1-[2-(aminomethyl)-3,3-difluoro-allyl]-5-oxo-1,2,4-triazol-4-yl]-2-fluoro-phenyl]-8-methyl-3,4-dihydro-1H-quinolin-2-one Trifluoroacetate]: > 100000 nM, 200 nM, 150 nM and 0.2 nM.
For `Cc1cc(-n2cnn(CC(CN)=C(F)F)c2=O)cnc1Br` [Example 13, 2-[2-(aminomethyl)-3,3-difluoro-allyl]-4-(6-bromo-5-methyl-3-pyridyl)-1,2,4-triazol-3-one Trifluoroacetate], the IC50 was > 100000 nM in experiment [1] (0.5 mM tyramine), 910 nM in experiment [2] (1 mM putrescine), 3600 nM in experiment [3] (1 mM benzylamine) and 3.6 nM on recombinant human VAP-1 (setting [5]).
For `CCn1cc(-c2cccc(-n3cnn(CC(CN)=C(F)F)c3=O)n2)cn1` [Example 53, 2-[2-(aminomethyl)-3,3-difluoro-allyl]-4-[6-(1-ethylpyrazol-4-yl)-2-pyridyl]-1,2,4-triazol-3-one Trifluoroacetate] the same measures were > 100000 nM, 1710 nM, > 100000 nM and 1.3 nM.
Regarding `NCC(Cn1ncn(Cc2ccc(-c3ccc4c(c3)OCO4)cc2)c1=O)=C(F)F` [Example 268, 2-[2-(aminomethyl)-3,3-difluoro-allyl]-4-[[4-(1,3-benzodioxol-5-yl)phenyl]methyl]-1,2,4-triazol-3-one Trifluoroacetate], the IC50 in experiment [1] (0.5 mM tyramine substrate) is > 100000 nM; in experiment [2] (1 mM putrescine substrate), > 100000 nM; in experiment [3] (1 mM benzylamine substrate) it was 1870 nM; at recombinant human VAP-1 (setting [4]), 2.1 nM.
Regarding `Cc1cc(-c2ccccc2Cn2cnn(CC(CN)=C(F)F)c2=O)cc2c1NC(=O)CC2` [Example 283, 6-[2-[[1-[2-(aminomethyl)-3,3-difluoro-allyl]-5-oxo-1,2,4-triazol-4-yl]methyl]phenyl]-8-methyl-3,4-dihydro-1H-quinolin-2-one Trifluoroacetate], the IC50 in experiment [1] (0.5 mM tyramine substrate) is > 100000 nM; in experiment [2] (1 mM putrescine substrate), > 100000 nM; in experiment [3] (1 mM benzylamine substrate) it was > 100000 nM; on recombinant human VAP-1 (setting [4]), 154 nM.
In the case of `Cc1c(-c2ccc3c(c2)OCO3)cccc1-n1cnn(CC(CN)=C(F)F)c1=O` [Example 257, 2-[2-(aminomethyl)-3,3-difluoro-allyl]-4-[3-(1,3-benzodioxol-5-yl)-2-methyl-phenyl]-1,2,4-triazol-3-one Trifluoroacetate], the IC50 was > 100000 nM in experiment [1] (0.5 mM tyramine substrate), > 100000 nM in experiment [2] (1 mM putrescine substrate), 101000 nM in experiment [3] (1 mM benzylamine substrate) and 2.4 nM at recombinant human VAP-1 (setting [4]).

(Values after patent publication US11168073B2, “3,3-difluoroallylamines or salts thereof and pharmaceutical compositions comprising the same” (YUHAN CORPORATION, priority 2018, dated 2021).)
